Columns and labels:
Assay type in all cases: in vivo
corn (Zea mays) = test: Test A1 preemergence, corn
In short: (§1)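 Seeds were first planted into a blend of loam soil and sand and given a preemergence directed soil spray. In parallel, pots of the same soil were sown for postemergence application once plants reached 2 to 10 cm and the one- to two-leaf stage. Both used surfactant-containing non-phytotoxic solvent formulations.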

[1] = test system: Foxtail, Giant (giant foxtail, Setaria faberi); test: Test A1 preemergence, Foxtail, Giant
In short: (§2)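 Plants grown in pots of loam/sand mix; preemergence = soil-directed spray on seeded pots, postemergence = spray at 1–2 leaves, height 2–10 cm; test chemicals formulated in non-phytotoxic solvent with surfactant.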

kochia (Bassia scoparia) [2] = test: Test A1 preemergence, kochia
In short: as §2

[3] = test system: Oat, Wild (wild oat, Avena fatua); test: Test A1 preemergence, Oat, Wild
In short: as §2

[4] = test system: ragweed (common ragweed, Ambrosia artemisiifolia); test: Test A1 preemergence, ragweed
In short: as §2

kochia (Bassia scoparia) [5] = test: Test A1 postemergence, kochia; settings: Postemergence
In short: (§3)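 Pre: seeds in loam/sand blend, directed soil spray. Post: potted plants, same soil, 2–10 cm, 1–2 leaf stage. Chemicals in non-phytotoxic solvent + surfactant for both.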

[6] = test system: Oat, Wild (wild oat, Avena fatua); test: Test A1 postemergence, Oat, Wild; settings: Postemergence
In short: as §1

[7] = test system: ragweed (common ragweed, Ambrosia artemisiifolia); test: Test A1 postemergence, ragweed; settings: Postemergence
In short: as §1

soybean (Glycine max) = test: Test A1 postemergence, soybean; settings: Postemergence
In short: as §3

[8] = test system: barnyardgrass (Echinochloa crus-galli); test: Test B1 flooded paddy test, barnyardgrass; settings: 250 g ai/ha, Flood, applied to paddy water, 2-leaf stage, visually evaluated after 10 to 14 days
Source text: A dash (-) response means no test result.

[9] = 31 g ai/ha, 0 to 100 scale (0 no effect, 100 complete control)
[10] = 125 g ai/ha, 0 to 100 scale, 0 no effect, 100 complete control
[11] = 31 g ai/ha, 0 to 100 scale (0 no effect, 100 complete control), 10 days

Row | SMILES | Plant response rating, Corn (corn (Zea mays); [9]) | Plant response rating, Corn (corn (Zea mays); [10]) | Plant response rating, Foxtail, Giant [1, 9] | Plant response rating, Foxtail, Giant [1, 10] | Plant response rating, Kochia (kochia (Bassia scoparia) [2]; [9]) | Plant response rating, Kochia (kochia (Bassia scoparia) [2]; [10]) | Plant response rating, Oat, Wild [3, 9] | Plant response rating, Oat, Wild [3, 10] | Plant response rating, Ragweed [4, 9] | Plant response rating, Ragweed [4, 10] | Plant response rating, Kochia (kochia (Bassia scoparia) [5]; [11]) | Plant response rating, Kochia (kochia (Bassia scoparia) [5]; 125 g ai/ha, 0 to 100 scale) | Plant response rating, Oat, Wild [6, 11] | Plant response rating, Oat, Wild ([6]; 125 g ai/ha, 0 to 100 scale) | Plant response rating, Ragweed [7, 11] | Plant response rating, Ragweed ([7]; 125 g ai/ha, 0 to 100 scale) | Plant response rating, Soybean (soybean (Glycine max); [11]) | Plant response rating, Soybean (soybean (Glycine max); 125 g ai/ha, 0 to 100 scale) | Plant response rating, Barnyardgrass (0 to 100 scale, 0 is no effect, 100 is complete control) [8]
1 | Cc1cc(C2CC2)c(NS(=O)(=O)C(F)(F)F)cc1C1=NOC2(CCCC2)C1 [Compound 313] | 0 | 0 | 0 | 40 | 0 | 0 | 0 | 0 | 0 | 0 | 0 | 20 | 0 | 0 | 0 | 0 | 0 | 20 | 0
2 | Cc1cc(C)c(-n2nccc(C)c2=O)cc1NS(=O)(=O)C(F)(F)F [Compound 281] | 0 | 0 | 0 | 100 | 0 | 20 | 50 | 0 | 0 | 0 | 0 | 10 | 0 | 0 | 0 | 70 | 50 | 60 | 0
3 | Cc1cc(C)c(N(S(=O)(=O)C(F)(F)F)S(=O)(=O)C(F)(F)F)cc1C1=NOC2COCC12 (stereo not shown) [Compound 296] | 0 | 70 | 30 | 100 | 60 | 90 | 0 | 10 | 50 | 90 | 20 | 40 | 0 | 10 | 20 | 30 | 30 | 40 | 30
4 | Cc1c(C(=O)N(C)C)cc(NS(=O)(=O)C(F)(F)F)c(Cl)c1F [Compound 320] | 0 | 30 | 10 | 100 | 20 | 50 | 0 | 0 | 60 | 70 | 30 | 70 | 0 | 0 | 40 | 80 | 20 | 70 | 0
5 | Cc1c(NS(=O)(=O)C(F)(F)F)cc(C(=O)N2CCC(Cl)CC2)c(C)c1C [Compound 356] | 0 | 90 | 90 | 100 | 0 | 30 | 0 | 20 | 0 | 0 | 10 | 50 | 0 | 10 | 70 | 80 | 50 | 80 | 45
6 | Cc1c(NS(=O)(=O)C(F)(F)F)cc(C(=O)N2CCOCC2)c(C)c1Cl [Compound 290] | 0 | 20 | 0 | 90 | 20 | 30 | 0 | 20 | 20 | 60 | 20 | 20 | 0 | 10 | 60 | 70 | 0 | 20 | 0
7 | CCC1ON=C(c2cc(NS(=O)(=O)C(F)(F)F)c(C)cc2C)C1CC (stereo not shown) [Compound 343] | 10 | 60 | 90 | 100 | 30 | 70 | 0 | 70 | 10 | 60 | 20 | 60 | 0 | 50 | 20 | 80 | 40 | 60 | 85
8 | Cc1cc(C)c(C2=NOC3COCC23)cc1NS(=O)(=O)C(F)(F)F (stereo not shown) [Compound 297] | 0 | 20 | 80 | 100 | 80 | 90 | 0 | 20 | 20 | 60 | 0 | 60 | 20 | 30 | 30 | 70 | 30 | 50 | 0
9 | Cc1c(C(=O)N2CCC(F)CC2)cc(N(COC(=O)C(C)(C)C)S(=O)(=O)C(F)(F)F)c(C)c1C [Compound 361] | 0 | 0 | 0 | 90 | 0 | 30 | 0 | 0 | 20 | 90 | 0 | 50 | 0 | 20 | 60 | 80 | 50 | 70 | 95
10 | CCC1ON=C(c2cc(N(COC(=O)C(C)(C)C)S(=O)(=O)C(F)(F)F)c(C)cc2C)C1CC (stereo not shown) [Compound 347] | 0 | 0 | 0 | 60 | 0 | 50 | 0 | 0 | 0 | 0 | 10 | 60 | 10 | 20 | 40 | 70 | 40 | 50 | 95

— patent publication US20230278972A1, “SUBSTITUTED HALOALKYL SULFONANILIDE HERBICIDES” (FMC Corporation, priority 2020, published 2023)
